# Measured values published in patent US12281122B1, “PI3K inhibitors” (Cogent Biosciences, Inc., priority 2023, dated 2025).
# Legend:
# [1] = system: T47D (PI3Kα-H1047R) cell line; test: HTRF phospho-AKT(S473) cell assay in T47D cells; type: cell-based, human
# In short: (§1)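 T47D: RPMI + 10% FBS + 0.2 units/mL insulin, top 5 μM. SKBR3: McCoy's 5A + 10% FBS, top 10 μM, 70 ng/ml PDGF-BB last 15 min. Both: 12-pt 1:3, 2 h, 37° C, max 0.5% DMSO; HTRF pAKT(S473); IC50.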
# [2] = system: SKBR3 (PI3Kα-Wild Type) cell line; test: HTRF phospho-AKT(S473) cell assay in SKBR3 cells; type: cell-based, human
# In short: as §1
# [3] = Homo sapiens; HTRF phospho-AKT(S473), T47D (PI3Kα-H1047R) cells, 2 hours compound incubation
# [4] = Homo sapiens, SK-BR-3; HTRF phospho-AKT(S473), SKBR3 (PI3Kα-Wild Type) cells, 2 hours compound incubation, PDGF-BB stimulated
# [5] = Homo sapiens; T47D (PI3Kα-H1047R) cells, HTRF phospho-AKT(S473), 2 hours compound incubation
# [6] = Homo sapiens, SK-BR-3; SKBR3 (PI3Kα-Wild Type) cells, HTRF phospho-AKT(S473), 2 hours compound incubation, PDGF-BB stimulated
Compound,"IC50 [1, 3]","IC50 [2, 4]","IC50 [1, 5]","IC50 [2, 6]"
"Cc1cc([C@@H](C)Nc2ccc(Cl)nc2C(=O)NS(C)(=O)=O)c2nc(N3C[C@H]4C[C@@H]3CN4c3nc(C)ncc3F)n(C)c(=O)c2c1 [Compound 605, 6-chloro-3-(((R)-1-(2-((1R,4R)-5-(5-fluoro-2-methylpyrimidin-4-yl)-2,5-diazabicyclo [2.2.1]heptan-2-yl)-3,6-dimethyl-4-oxo-3,4-dihydroquinazolin-8-yl)ethyl)amino)-N-(methylsulfonyl) picolinamide]",250 to 500 nM,≥ 5000 nM,,
"Cc1cc([C@@H](C)Nc2ccc(Cl)nc2C(=O)NS(C)(=O)=O)c2nc(N3[C@@H]4CC[C@H]3C[C@H](n3cc(C)cn3)C4)n(C)c(=O)c2c1 [Compound 481, 6-chloro-3-(((R)-1-(3,6-dimethyl-2-((1R,3S,5S)-3-(4-methyl-1H-pyrazol-1-yl)-8-azabicyclo[3.2.1]octan-8-yl)-4-oxo-3,4-dihydroquinazolin-8-yl)ethyl)amino)-N-(methylsulfonyl) picolinamide]",250 to 500 nM,1000 to 5000 nM,,
"[2H]C([2H])([2H])n1ccc([C@H]2[C@@H]3CN(c4nc5c([C@@H](C)Nc6ccc(Cl)nc6C(=O)NS(C)(=O)=O)cc(C)cc5c(=O)n4C)C[C@@H]32)n1 [Compound 493, 6-chloro-3-(((R)-1-(3,6-dimethyl-2-((1R,5S,6R)-6-(1-(methyl-d3)-1H-pyrazol-3-yl)-3-azabicyclo[3.1.0]hexan-3-yl)-4-oxo-3,4-dihydroquinazolin-8-yl)ethyl)amino)-N-(methylsulfonyl) picolinamide]",< 250 nM,1000 to 5000 nM,,
"Cc1cc([C@@H](C)Nc2ccc(Cl)nc2C(=O)NS(C)(=O)=O)c2nc(N3CCC(C)(c4nn(C)cc4F)CC3)n(C)c(=O)c2c1 [Compound 406, (R)-6-chloro-3-((1-(2-(4-(4-fluoro-1-methyl-1H-pyrazol-3-yl)-4-methylpiperidin-1-yl)-3,6-dimethyl-4-oxo-3,4-dihydroquinazolin-8-yl)ethyl)amino)-N-(methylsulfonyl) picolinamide]",,,250 to 500 nM,≥ 5000 nM
"Cc1cc([C@@H](C)Nc2ccc(Cl)nc2C(=O)NS(C)(=O)=O)c2nc(N3CCC(c4cc(F)cnc4C)CC3)n(C)c(=O)c2c1 [Compound 436, (R)-6-chloro-3-((1-(2-(4-(5-fluoro-2-methylpyridin-3-yl)piperidin-1-yl)-3,6-dimethyl-4-oxo-3,4-dihydroquinazolin-8-yl)ethyl)amino)-N-(methylsulfonyl) picolinamide]",,,< 250 nM,1000 to 5000 nM
"Cc1cc([C@@H](C)Nc2ccc(Cl)nc2C(=O)NS(C)(=O)=O)c2nc(-c3cnn(-c4ccccc4)c3)n(C)c(=O)c2c1 [Compound 171, (R)-6-chloro-3-((1-(3,6-dimethyl-4-oxo-2-(1-phenyl-1H-pyrazol-4-yl)-3,4-dihydroquinazolin-8-yl)ethyl)amino)-N-(methylsulfonyl) picolinamide]",,,< 250 nM,1000 to 5000 nM
"Cc1cc([C@@H](C)Nc2ccc(Cl)nc2C(=O)NS(C)(=O)=O)c2nc(N3CCc4cn(CC(F)(F)F)nc4C3)n(C)c(=O)c2c1 [Compound 214, (R)-6-chloro-3-((1-(3,6-dimethyl-4-oxo-2-(2-(2,2,2-trifluoroethyl)-2,4,5,7-tetrahydro-6H-pyrazolo[3,4-c]pyridin-6-yl)-3,4-dihydroquinazolin-8-yl)ethyl)amino)-N-(methylsulfonyl) picolinamide]",,,< 250 nM,1000 to 5000 nM
"Cc1cc([C@@H](C)Nc2ccc(Cl)nc2C(=O)NS(C)(=O)=O)c2nc(N3Cc4cn(C5(C(F)(F)F)CC5)nc4C3)n(C)c(=O)c2c1 [Compound 185, (R)-6-chloro-3-((1-(3,6-dimethyl-4-oxo-2-(2-(1-(trifluoromethyl)cyclopropyl)-2,6-dihydropyrrolo[3,4-c]pyrazol-5(4H)-yl)-3,4-dihydroquinazolin-8-yl)ethyl)amino)-N-(methylsulfonyl) picolinamide]",,,< 250 nM,1000 to 5000 nM
"CO[C@H]1CC[C@@H](n2ncc(-c3nc4c([C@@H](C)Nc5ccc(Cl)nc5C(=O)NS(C)(=O)=O)cc(C)cc4c(=O)n3C)c2C)CC1 (relative stereo) [Compound 380, 6-chloro-3-(((R)-1-(2-(1-((1S*,4S*)-4-methoxycyclohexyl)-5-methyl-1H-pyrazol-4-yl)-3,6-dimethyl-4-oxo-3,4-dihydroquinazolin-8-yl)ethyl)amino)-N-(methylsulfonyl) picolinamide]",,,< 250 nM,≥ 5000 nM
"Cc1cc([C@@H](C)Nc2ccc(Cl)nc2C(=O)NS(C)(=O)=O)c2nc(N3Cc4cnn(C5(C(F)(F)F)CC5)c4C3)n(C)c(=O)c2c1 [Compound 179, (R)-6-chloro-3-((1-(3,6-dimethyl-4-oxo-2-(1-(1-(trifluoromethyl)cyclopropyl)-4,6-dihydropyrrolo[3,4-c]pyrazol-5(1H)-yl)-3,4-dihydroquinazolin-8-yl)ethyl)amino)-N-(methylsulfonyl) picolinamide]",,,< 250 nM,1000 to 5000 nM

# Now from value to compound:
"IC50 [1, 3]","IC50 [2, 4]","IC50 [1, 5]","IC50 [2, 6]",Compound
250 to 500 nM,≥ 5000 nM,,,"Cc1cc([C@@H](C)Nc2ccc(Cl)nc2C(=O)NS(C)(=O)=O)c2nc(N3C[C@H]4C[C@@H]3CN4c3nccnc3C)n(C)c(=O)c2c1 [Compound 624, 6-chloro-3-(((R)-1-(3,6-dimethyl-2-((1R,4R)-5-(3-methylpyrazin-2-yl)-2,5-diazabicyclo [2.2.1]heptan-2-yl)-4-oxo-3,4-dihydroquinazolin-8-yl)ethyl)amino)-N-(methylsulfonyl) picolinamide]"
250 to 500 nM,1000 to 5000 nM,,,"Cc1cc([C@@H](C)Nc2ccc(Cl)nc2C(=O)NS(C)(=O)=O)c2nc(N3Cc4cnc(C)nc4C3)n(C)c(=O)c2c1 [Compound 612, (R)-6-chloro-3-((1-(3,6-dimethyl-2-(2-methyl-5,7-dihydro-6H-pyrrolo[3,4-d]pyrimidin-6-yl)-4-oxo-3,4-dihydroquinazolin-8-yl)ethyl)amino)-N-(methylsulfonyl) picolinamide]"
< 250 nM,≥ 5000 nM,,,"Cc1cc([C@@H](C)Nc2ccc(Cl)nc2C(=O)NS(C)(=O)=O)c2nc(N3CCN(c4cc(C)n(C)n4)CC3)n(C)c(=O)c2c1 [Compound 634, (R)-6-chloro-3-((1-(2-(4-(1,5-dimethyl-1H-pyrazol-3-yl)piperazin-1-yl)-3,6-dimethyl-4-oxo-3,4-dihydroquinazolin-8-yl)ethyl)amino)-N-(methylsulfonyl) picolinamide]"
< 250 nM,≥ 5000 nM,,,"Cc1cc([C@@H](C)Nc2ccc(Cl)nc2C(=O)NS(C)(=O)=O)c2nc(N3CCN(c4nc(C(F)F)ncc4F)CC3)n(C)c(=O)c2c1 [Compound 772, (R)-6-chloro-3-((1-(2-(4-(2-(difluoromethyl)-5-fluoropyrimidin-4-yl)piperazin-1-yl)-3,6-dimethyl-4-oxo-3,4-dihydroquinazolin-8-yl)ethyl)amino)-N-(methylsulfonyl) picolinamide]"
< 250 nM,1000 to 5000 nM,,,"Cc1cc([C@@H](C)Nc2ccc(Cl)nc2C(=O)NS(C)(=O)=O)c2nc(-c3ccc4c(cnn4CC(F)(F)F)c3)n(C)c(=O)c2c1 [Compound 783, (R)-6-chloro-3-((1-(3,6-dimethyl-4-oxo-2-(1-(2,2,2-trifluoroethyl)-1H-indazol-5-yl)-3,4-dihydroquinazolin-8-yl)ethyl)amino)-N-(methylsulfonyl) picolinamide]"
